Target: PKM2 (Homo sapiens, UniProt P14618)
Experiment: PKM2 Biochemical Assay
Conditions: for Max. Resp.: % maximum response in a biochemical assay as compared with Fructose 1,6-bisphosphate

PKM2, sequence (P14618 whole entry): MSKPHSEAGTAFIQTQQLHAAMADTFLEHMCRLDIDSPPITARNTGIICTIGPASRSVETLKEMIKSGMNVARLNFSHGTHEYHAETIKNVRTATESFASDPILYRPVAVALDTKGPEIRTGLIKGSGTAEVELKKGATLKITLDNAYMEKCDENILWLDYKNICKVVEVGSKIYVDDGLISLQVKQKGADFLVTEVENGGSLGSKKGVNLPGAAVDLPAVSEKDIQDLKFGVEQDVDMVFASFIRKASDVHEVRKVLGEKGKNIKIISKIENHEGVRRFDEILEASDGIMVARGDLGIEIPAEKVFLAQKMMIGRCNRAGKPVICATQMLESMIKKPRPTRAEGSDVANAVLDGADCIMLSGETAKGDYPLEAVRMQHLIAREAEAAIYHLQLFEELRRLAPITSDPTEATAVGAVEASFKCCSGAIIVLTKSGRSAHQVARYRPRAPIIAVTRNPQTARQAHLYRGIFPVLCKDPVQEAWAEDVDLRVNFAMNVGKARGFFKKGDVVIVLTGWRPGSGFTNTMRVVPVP

Row | SMILES | Max. Resp. | AC50
1 | CCN(CC)CCN(Cc1ccccc1F)C(=O)c1cc(C(F)(F)F)n[nH]1 [Example 148, N-(2-fluorobenzyl)-N-(2-(diethylamino)ethyl)-3-(trifluoromethyl)-1H-pyrazole-5-carboxamide] | 100% | 
2 | O=C(c1cc(C(F)(F)F)n[nH]1)N(CCC1CCCCO1)Cc1ccccc1Cl (stereo not drawn) [Example 44] | 32% | 
3 | CCN1CCN(CCN(Cc2ccccc2F)C(=O)c2cc(C(F)(F)F)n[nH]2)CC1 [Example 106] | 115% | 
4 | CCC1CCN(CCN(Cc2ccccc2Cl)C(=O)c2cc(C(F)(F)F)n[nH]2)CC1 [Example 199, N-(2-chlorobenzyl)-N-(2-(4-ethylpiperidin-1-yl)ethyl)-3-(trifluoromethyl)-1H-pyrazole-5-carboxamide] | 100/100% | 
5 | CC1CCCN(CCN(Cc2cc(N)ccc2Cl)C(=O)c2cc(C(F)(F)F)n[nH]2)C1 (stereo not drawn) [Example 200, N-(5-amino-2-chlorobenzyl)-3-(trifluoromethyl)-N-(2-(3-methylpiperidin-1-yl)ethyl)-1H-pyrazole-5-carboxamide] | 100% | 
6 | O=C(c1cc(C(F)(F)F)n[nH]1)N(CCN1CCCCCC1)Cc1ccccc1F [Example 197, N-(2-fluorobenzyl)-N-(2-(azepan-1-yl)ethyl)-3-(trifluoromethyl)-1H-pyrazole-5-carboxamide] | 100% | 
7 | CCN(CCN(Cc1ccccc1Cl)C(=O)c1cc(C(F)(F)F)n[nH]1)C(C)C [Example 204, N-(2-chlorobenzyl)-N-(2-(ethyl-isopropylamino)ethyl)-3-(trifluoromethyl)-1H-pyrazole-5-carboxamide] | 53% | 
8 | CC(C)OCCN(Cc1ccccc1Cl)C(=O)c1cc(C(F)(F)F)n[nH]1 [Example 37] | 37% | 
9 | O=C(c1cc(C(F)(F)F)n[nH]1)N(CCN1CCCCCC1)Cc1ccc(O)cc1Cl [Example 194, N-(2-chloro-4-hydroxybenzyl)-N-(2-(azepan-1-yl)ethyl)-3-(trifluoromethyl)-1H-pyrazole-5-carboxamide] | 100% | 
10 | O=C(c1cc(C(F)(F)F)n[nH]1)N(CCN1CCS(=O)(=O)CC1)Cc1ccccc1F [Example 108] | 92% | 
11 | COC1CCCN(CCN(Cc2c(N)cccc2Cl)C(=O)c2cc(C(F)(F)F)n[nH]2)C1 (stereo not drawn) [Example 237, N-(2-amino-6-chlorobenzyl)-3-(trifluoromethyl)-N-(2-(3-methoxypiperidin-1-yl)ethyl)-1H-pyrazole-5-carboxamide] | 100% | 
12 | CO[C@H]1CC[C@H](N(Cc2ncccc2Cl)C(=O)c2cc(C(F)(F)F)n[nH]2)CC1 [Example 56] | 48% | 
13 | O=C(c1cc(C(F)(F)F)n[nH]1)N(CCN1CCCC1)Cc1c(Cl)cccc1Cl [Example 178, N-(2,6-dichlorobenzyl)-3-(trifluoromethyl)-N-(2-(pyrrolidin-1-yl)ethyl)-1H-pyrazole-5-carboxamide] | 100% | 
14 | CO[C@H]1CC[C@H](N(Cc2ccccc2Cl)C(=O)c2cc(C(F)(F)F)n[nH]2)CC1 [Example 52] | 100% | 
15 | Nc1cccc(Cl)c1CN(CC1CCN1)C(=O)c1cc(C(F)(F)F)n[nH]1 (stereo not drawn) [Example 233, N-(2-amino-6-chlorobenzyl)-N-((azetidin-2-yl)methyl)-3-(trifluoromethyl)-1H-pyrazole-5-carboxamide] | 75% | 
16 | O=C(c1cc(Br)n[nH]1)N(CCC1CCSCC1)Cc1ccccc1F [Example 82] | 74% | 

Row | SMILES | Max. Resp. | AC50
17 | CC1CCCN(CCN(Cc2ccccc2Cl)C(=O)c2cc(C(F)(F)F)n[nH]2)C1 (stereo not drawn) [Example 191, N-(2-chlorobenzyl)-3-(trifluoromethyl)-N-(2-(3-methylpiperidin-1-yl)ethyl)-1H-pyrazole-5-carboxamide] | 100% | 
18 | O=C(c1cc(C(F)(F)F)n[nH]1)N(CCN1CCCC(O)C1)Cc1ccccc1Cl (stereo not drawn) [Example 220, N-(2-chlorobenzyl)-3-(trifluoromethyl)-N-(2-(3-hydroxypiperidin-1-yl)ethyl)-1H-pyrazole-5-carboxamide] | 100% | 
19 | CC1CCCC(C)N1CCN(Cc1ccccc1Cl)C(=O)c1cc(C(F)(F)F)n[nH]1 (stereo not drawn) [Example 212, N-(2-chlorobenzyl)-3-(trifluoromethyl)-N-(2-(2,6-dimethylpiperidin-1-yl)ethyl)-1H-pyrazole-5-carboxamide] | 53% | 
20 | CC(c1ccccc1)N(CC1CCC1)C(=O)c1cc(Br)n[nH]1 (stereo not drawn) [Example 4, 3-bromo-N-(cyclobutylmethyl)-N-(1-phenylethyl)-1H-pyrazole-5-carboxamide] | 52% | 1480 nM
21 | CC(C)O[C@H]1CC[C@H](N(Cc2ccccc2Cl)C(=O)c2cc(C(F)(F)F)n[nH]2)CC1 [Example 53] | 63% | 
22 | O=C(c1cc(C(F)(F)F)n[nH]1)N(CCN1CCCC1)Cc1cccc2[nH]ccc12 [Example 164, N-((1H-indol-4-yl)methyl)-3-(trifluoromethyl)-N-(2-(pyrrolidin-1-yl)ethyl)-1H-pyrazole-5-carboxamide] | 100% | 
23 | O=C(c1cc(C(F)(F)F)n[nH]1)N(CCC1CCS(=O)(=O)C1)Cc1cccc([N+](=O)[O-])c1Cl (stereo not drawn) [Example 94, N-(2-chloro-3-nitrobenzyl)-N-(2-(1,1-dioxidotetrahydrothiophen-3-yl)ethyl)-3-(trifluoromethyl)-1H-pyrazole-5-carboxamide] | 69% | 
24 | CCN(CC)CCN(Cc1ccccc1Cl)C(=O)c1cc(Cl)n[nH]1 [Example 176, N-(2-chlorobenzyl)-3-chloro-N-(2-(diethylamino)ethyl)-1H-pyrazole-5-carboxamide] | 100% | 1150 nM
25 | NCCN(Cc1ccc(O)cc1F)C(=O)c1cc(C(F)(F)F)n[nH]1 [Example 133, N-(2-fluoro-4-hydroxybenzyl)-N-(2-aminoethyl)-3-(trifluoromethyl)-1H-pyrazole-5-carboxamide] | 100% | 
26 | COCCN(Cc1ccc(O)cc1F)C(=O)c1cc(C(F)(F)F)n[nH]1 [Example 142, N-(2-fluoro-4-hydroxybenzyl)-3-(trifluoromethyl)-N-(2-methoxyethyl)-1H-pyrazole-5-carboxamide] | 100% | 
27 | Nc1cccc(Cl)c1CN(CCN1CCCCCC1)C(=O)c1cc(C(F)(F)F)n[nH]1 [Example 218, N-(2-amino-6-chlorobenzyl)-N-(2-(azepan-1-yl)ethyl)-3-(trifluoromethyl)-1H-pyrazole-5-carboxamide] | 100% | 
28 | CC1CCCN(CCN(Cc2ccccc2F)C(=O)c2cc(C(F)(F)F)n[nH]2)C1 (stereo not drawn) [Example 201, N-(2-fluorobenzyl)-3-(trifluoromethyl)-N-(2-(3-methylpiperidin-1-yl)ethyl)-1H-pyrazole-5-carboxamide] | 100% | 
29 | CN1CCN(CCN(Cc2ccccc2F)C(=O)c2cc(C(F)(F)F)n[nH]2)CC1 [Example 103] | 42% | 
30 | CCN(CC)CCN(Cc1cccc2[nH]ccc12)C(=O)c1cc(C(F)(F)F)n[nH]1 [Example 161, N-((1H-indol-4-yl)methyl)-N-(2-(diethylamino)ethyl)-3-(trifluoromethyl)-1H-pyrazole-5-carboxamide] | 100% | 
31 | O=C(c1cc(C(F)(F)F)n[nH]1)N(Cc1cccc2[nH]cnc12)CC1CCC1 [Example 123, N-((1H-benzo[d]imidazol-4-yl)methyl)-N-(cyclobutylmethyl)-3-(trifluoromethyl)-1H-pyrazole-5-carboxamide] | 100% | 

Source: US10766865B2, “PKM2 modulators and methods for their use” (TOLERO PHARMACEUTICALS, INC., priority 2012, dated 2020)
